“And” between values parts separate entries of the source, which are not always exact repeats. Identical values can stand only once. Inconclusive results and toxic doses are left out. Cut-off read from the data, not from the text of the source: active = T/C of 150% or more; inactive = T/C below 125%.
Test system: L1210 leukemia ip in BDF1 mice, survival T/C
Assay: NCI In Vivo Anticancer Drug Screen. Data for tumor model L1210 Leukemia (intraperitoneal) in B6D2F1 (BDF1) mice
Conditions: endpoint: mean survival time, higher = longer survival
How it was run: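 Survival endpoint. Drug-treated group vs vehicle group, expressed as T divided by C. Tumor passaged by transplantation.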

Measured: T/C

CC(C)(CCCC(C)(C)[N+](=O)[O-])[N+](=O)[O-]
inactive: dose: 100.0 mg/kg/injection, schedule: Q01DX001 (ip), vehicle: saline with Tween-80 101 % of control | dose: 200.0 mg/kg/injection, schedule: Q01DX001 (ip), vehicle: saline with Tween-80 94 % of control | dose: 400.0 mg/kg/injection, schedule: Q01DX001 (ip), vehicle: saline with Tween-80 101 % of control

NC(=O)c1ccc(N)nc1
inactive: dose: 22.0 mg/kg/injection, schedule: Q01DX001 (ip), vehicle: carboxymethylcellulose (CMC) 104 % of control and 106 % of control | dose: 25.0 mg/kg/injection, schedule: Q01DX001 (ip), vehicle: carboxymethylcellulose (CMC) 106 % of control | dose: 33.0 mg/kg/injection, schedule: Q01DX001 (ip), vehicle: carboxymethylcellulose (CMC) 109 % of control and 114 % of control | dose: 50.0 mg/kg/injection, schedule: Q01DX001 (ip), vehicle: carboxymethylcellulose (CMC) 111 % of control and 112 % of control | dose: 75.0 mg/kg/injection, schedule: Q01DX001 (ip), vehicle: carboxymethylcellulose (CMC) 109 % of control and 90 % of control | dose: 100.0 mg/kg/injection, schedule: Q01DX001 (ip), vehicle: carboxymethylcellulose (CMC) 95 % of control

CCCCOc1ccc(/C=N/NC(=O)CNC(=O)Nc2cccc([N+](=O)[O-])c2)cc1
inactive: dose: 50.0 mg/kg/injection, schedule: Q01DX009 (ip), vehicle: saline with Tween-80 96 % of control | dose: 100.0 mg/kg/injection, schedule: Q01DX009 (ip), vehicle: saline with Tween-80 96 % of control | dose: 200.0 mg/kg/injection, schedule: Q01DX009 (ip), vehicle: saline with Tween-80 93 % of control

CC(c1ccccc1)n1ccnc1CC#N (stereo not given)
inactive: dose: 12.5 mg/kg/injection, schedule: Q01DX009 (ip), vehicle: saline 109 % of control and 88 % of control | dose: 12.5 mg/kg/injection, schedule: Q04DX002 (ip), vehicle: saline 91 % of control | dose: 25.0 mg/kg/injection, schedule: Q01DX001 (ip), vehicle: saline 100 % of control | dose: 25.0 mg/kg/injection, schedule: Q01DX009 (ip), vehicle: saline 107 % of control and 114 % of control | dose: 25.0 mg/kg/injection, schedule: Q04DX002 (ip), vehicle: saline 101 % of control and 105 % of control and 109 % of control | dose: 25.0 mg/kg/injection, schedule: Q04DX003 (ip), vehicle: saline 88 % of control | dose: 50.0 mg/kg/injection, schedule: Q01DX001 (ip), vehicle: saline 101 % of control | dose: 50.0 mg/kg/injection, schedule: Q01DX009 (ip), vehicle: saline 97 % of control and 98 % of control | dose: 50.0 mg/kg/injection, schedule: Q04DX002 (ip), vehicle: saline 95 % of control and 96 % of control and 102 % of control | dose: 50.0 mg/kg/injection, schedule: Q04DX003 (ip), vehicle: saline 93 % of control

CC(=O)NC1(C(=O)O)CSSC1
inactive: dose: 50.0 mg/kg/injection, schedule: Q01DX005 (ip), vehicle: saline 102 % of control | dose: 100.0 mg/kg/injection, schedule: Q01DX005 (ip), vehicle: saline 100 % of control | dose: 200.0 mg/kg/injection, schedule: Q01DX005 (ip), vehicle: saline 93 % of control | dose: 400.0 mg/kg/injection, schedule: Q01DX005 (ip), vehicle: saline 102 % of control

O=S(=O)(O)c1cc(O)c2ccccc2c1
inactive: dose: 100.0 mg/kg/injection, schedule: Q01DX009 (ip), vehicle: saline 90 % of control | dose: 100.0 mg/kg/injection, schedule: Q04DX003 (ip), vehicle: saline 109 % of control | dose: 200.0 mg/kg/injection, schedule: Q01DX009 (ip), vehicle: saline 90 % of control | dose: 200.0 mg/kg/injection, schedule: Q04DX003 (ip), vehicle: saline 109 % of control | dose: 400.0 mg/kg/injection, schedule: Q01DX009 (ip), vehicle: saline 95 % of control | dose: 400.0 mg/kg/injection, schedule: Q04DX003 (ip), vehicle: saline 109 % of control

O=c1cc(CNC23CC4CC(CC(C4)C2)C3)[nH]c(=O)[nH]1
inactive: dose: 100.0 mg/kg/injection, schedule: Q04DX003 (ip), vehicle: saline with Tween-80 96 % of control | dose: 200.0 mg/kg/injection, schedule: Q04DX003 (ip), vehicle: saline with Tween-80 96 % of control | dose: 400.0 mg/kg/injection, schedule: Q04DX003 (ip), vehicle: saline with Tween-80 89 % of control

Reference: PubChem BioAssay AID248 (DTP/NCI, 2004)
